# Measurements as given in paper PMC2943414 (Journal of the American Chemical Society, 2010).
# Target: flavodoxin (Nitratidesulfovibrio vulgaris, UniProt P00323, W140F)
# Assay: FMN retained on purification
# Assay type: binding
# Details: oxidized state; as purified, before FMN removal
# flavodoxin, sequence (P00323 whole entry W140F): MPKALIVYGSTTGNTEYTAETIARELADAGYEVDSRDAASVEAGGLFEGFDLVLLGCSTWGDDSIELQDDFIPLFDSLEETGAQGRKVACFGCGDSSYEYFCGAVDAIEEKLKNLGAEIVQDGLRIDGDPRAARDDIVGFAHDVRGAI
smiles,measurement,value
Cc1cc2nc3c(=O)[nH]c(=O)nc-3n(C[C@H](O)[C@H](O)[C@H](O)COP(=O)(O)O)c2cc1C [FMN],FMN retained on purification,the two flavodoxin mutants (W60FY98F and W140F) contained the oxidized FMN
